Reference: PubChem BioAssay (NCI)
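Method: 48-hour compound exposure of cells in 96-well plates, five concentrations, linear interpolation of endpoints. GI50 marks 50% less growth. TGI: total growth inhibition.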

How the values were obtained:
Test in all cases: NCI tumour cell line growth inhibition, 48 h; in the data active = GI50 below about 0.43 µM; inactive = the rest
[1] = test system: DLD-1 colon
[2] = test system: KM20L2 colon
[3] = test system: TK-10 renal
[4] = test system: SK-MEL-2 melanoma
[5] = test system: SNB-19 CNS
[6] = test system: MOLT-4 leukemia
[7] = test system: CCRF-CEM leukemia
[8] = test system: OVCAR-3 ovarian
[9] = test system: NCI-H460 lung
[10] = test system: HS 578T breast

COc1cc(C2(C)SCCCS2)c(I)c(OC)c1OC
> 100 µM: TGI [1] | TGI [2] | TGI [3] | TGI [4] | TGI [5] | TGI [6] | TGI [7] | TGI [8] | TGI [9]

Cc1ccc(C)c2c1CCc1cc3ccccc3nc1-2
> 100 µM: TGI [1] | TGI [2] | TGI [3] | TGI [4] | TGI [5] | TGI [6] | TGI [7] | TGI [8] | TGI [9]

COC(=O)/C(=N/O)C(C(=O)OC)C(=O)C(=O)Nc1c(Cl)cc(C)cc1S(=O)(=O)O (centres undefined)
> 100 µM: TGI [1] | TGI [2] | TGI [3] | TGI [4] | TGI [5] | TGI [6] | TGI [7] | TGI [8] | TGI [9]

C/C=C/C(=O)[O-].N.N.N.N.N.[Co+3].[O-][Cl+3]([O-])([O-])[O-]
> 100 µM: TGI [1] | TGI [2] | TGI [3] | TGI [4] | TGI [5] | TGI [6] | TGI [7] | TGI [8] | TGI [9]
inactive: GI50 [1] > 100 µM | GI50 [2] > 100 µM | GI50 [3] > 100 µM | GI50 [4] > 100 µM | GI50 [5] > 100 µM | GI50 [6] > 100 µM | GI50 [7] > 100 µM | GI50 [8] > 100 µM | GI50 [9] > 100 µM

COc1cccc2ccc3c(c12)C(=O)OC31CCc2c(C)cccc21 (centres undefined)
33.7 µM: TGI [6]
> 46.4 µM: TGI [4] | TGI [5] | TGI [8]
> 100 µM: TGI [3] | TGI [7] | TGI [10]
> 31.6 µM: TGI [1] | TGI [2] | TGI [9]

O=C(O)Cc1cc(=O)[nH]c2c1C(=O)CCC2
> 100 µM: TGI [1] | TGI [2] | TGI [3] | TGI [4] | TGI [5] | TGI [6] | TGI [7] | TGI [8] | TGI [9]

COC(=O)C1=C(c2cc(OC)c(OC)c(OC)c2)O[C@H](c2ccc3c(c2)OCO3)[C@H]1COC(C)=O
74 µM: TGI [6]
> 100 µM: TGI [1] | TGI [2] | TGI [3] | TGI [4] | TGI [7] | TGI [8] | TGI [9]

CCCCCCCCCCCCCCC(O)C1CCC(C(O)CCC(O)CCCCCC(O)CC2=CC(C)OC2=O)O1 (centres undefined)
11.9 µM: TGI [1]
11.1 µM: TGI [5]
17.9 µM: TGI [3]
9.03 µM: TGI [4]
5.12 µM: TGI [7]
4.76 µM: TGI [8]
18.3 µM: TGI [2]
3.14 µM: TGI [6]

O=C1C2=C(c3ccccc31)C(c1ccc(Cl)cc1)NC(=S)N2 (centres undefined)
> 100 µM: TGI [9]
39.6 µM: TGI [8]
96 µM: TGI [5]
41.3 µM: TGI [6]
54.6 µM: TGI [7]
60.9 µM: TGI [1]
37.4 µM: TGI [2]
48.9 µM: TGI [3]
58.7 µM: TGI [4]

CCCCN(CCCC)C(=O)C(=O)CC(=O)/C=C/c1ccccc1
> 100 µM: TGI [1] | TGI [2] | TGI [3] | TGI [4] | TGI [5] | TGI [6] | TGI [7] | TGI [8] | TGI [9]

O=C1C2=C(c3ccccc31)C(c1ccc(F)cc1)N1C(=O)CCSC1=N2 (centres undefined)
> 100 µM: TGI [1] | TGI [2] | TGI [3] | TGI [4] | TGI [5] | TGI [6] | TGI [7] | TGI [8] | TGI [9]

c1ccc(-c2[nH]c(-c3ccccc3)c(-c3cnccn3)c2-c2cnccn2)cc1
> 100 µM: TGI [1] | TGI [2] | TGI [3] | TGI [4] | TGI [5] | TGI [6] | TGI [7] | TGI [8] | TGI [9]

CCOC(=O)/C(C#N)=C(N)/C(=N\Nc1cccc(C(F)(F)F)c1)C(=O)OCC
> 100 µM: TGI [1] | TGI [2] | TGI [3] | TGI [4] | TGI [5] | TGI [6] | TGI [7] | TGI [8]

O=C(Nc1ccccc1C(=O)O)C(=O)C(C(=O)c1ccccc1-c1ccccc1)C1OC(=O)c2ccccc21 (centres undefined)
35.2 µM: TGI [5]
34.3 µM: TGI [8]
44 µM: TGI [2]
32.7 µM: TGI [9]
47 µM: TGI [1]
> 100 µM: TGI [4] | TGI [6]
78.4 µM: TGI [7]
29.6 µM: TGI [3]

COC(=O)c1nn(C(=N)c2ccc(Cl)cc2)c2c1CCCCC2
> 100 µM: TGI [1] | TGI [2] | TGI [3] | TGI [4] | TGI [5] | TGI [6] | TGI [7] | TGI [9]

CC(=O)O[C@H]1C(=O)[C@@]2(C)C(C(OC(=O)c3ccccc3)[C@]3(O)CC(OC(=O)C(O)C(NC(=O)c4ccccc4)c4ccc(C)cc4)C(C)=C1C3(C)C)[C@]1(OC(C)=O)CO[C@@H]1C[C@@H]2O (some centres undefined)
0.0981 µM: TGI [2]
0.523 µM: TGI [5]
9.81 µM: TGI [7]
0.121 µM: TGI [4]
> 25 µM: TGI [1] | TGI [3] | TGI [9]
5.82 µM: TGI [6]

N[C@H](C(=O)O)[C@@H](Cl)CC(=O)O
> 100 µM: TGI [1] | TGI [2] | TGI [3] | TGI [4] | TGI [5] | TGI [6] | TGI [7] | TGI [8] | TGI [9]

CNC(C)Cc1ccc(O)cc1 (centres undefined)
> 100 µM: TGI [1] | TGI [2] | TGI [3] | TGI [4] | TGI [5] | TGI [6] | TGI [7] | TGI [8] | TGI [9]

COc1cc2c3c(c1OC)Oc1ccc(cc1)CC1c4c(cc(OC)c(OC)c4Oc4ccc(cc4)CC3N(C)CC2)CCN1C (centres undefined)
37.1 µM: TGI [9]
50.6 µM: TGI [4]
63.2 µM: TGI [6]
55.1 µM: TGI [7]
44.7 µM: TGI [8]
> 100 µM: TGI [1] | TGI [5]
46.1 µM: TGI [3]
45.2 µM: TGI [2]

COc1cc(C(=O)C/C(CCC(=O)Nc2ccc(Cl)cc2Cl)=N/Nc2nnc(C)n2N)ccc1O
> 100 µM: TGI [1] | TGI [2] | TGI [3] | TGI [4] | TGI [5] | TGI [7] | TGI [8] | TGI [9]
